Consider two compounds from patent US20210161149A1, “METHOD OF CONTROLLING SOIL-BORNE DISEASES OF PLANTS” (NATIONAL AGRICULTURE AND FOOD RESEARCH ORGANIZATION, priority 2018, published 2021).

In assay [1] the test system is Rhizoctonia solani strain MAFF726551. The assay is described as follows: Control of Rhizoctonia soil-borne disease in cucumber by a Pseudomonas bacterium combined with glutamic acid. It counts as in vivo. Conditions: 10 mM glutamic acid combined with Pseudomonas protegens strain Cab57, 5 days cultivation, n=8 to 12. As for the experimental part:
(§1) Cucumber seeds were placed on a filter paper moistened with sterile water and left in darkness at 26° C. for 24 hours. Pseudomonas protegens strain CHA0 was used as a Pseudomonas bacterium and incubated with shaking in NYB medium (nutrient broth 25 g, yeast extract 5 g, H2O 1000 mL) under the conditions of 30° C. and 180 rpm for 24 hours. The broth culture of the Pseudomonas bacterium was centrifuged to remove supernatants, and the precipitate was suspended in sterile water to OD600=0.1.
(§2) 50 mL of each prepared vermiculite was equally divided into sections (each 5 cm square and 5 cm deep) of a seedling tray with drainage holes at the bottom for water to drain out. Two grains of cucumber seeds observed to have germinated were seeded on each divided vermiculite.
The Pseudomonas bacterium and glutamic acid were applied to cucumber seeds and soils in their vicinity. […]
In this example, by using the same procedure as in Example 1, 1 g of coarse cereal crops infected with the Rhizoctonia was added to 1 L of vermiculite, instead of 7 g of coarse cereal crops infected with a Pythium. […] As in Example 3, for each of the averaged values of the cucumber weights after cultivation calculated for the different groups, a relative value was determined with respect to the averaged value for the group treated with the Pseudomonas bacterium alone, which was taken as 1.

The test system of assay [2] is Pythium ultimum strain MAFF425494. Nature of the assay: Control of Pythium soil-borne disease in cucumber by a Pseudomonas bacterium combined with an amino acid. It counts as in vivo. Conditions: for effect on disease control ability of the Pseudomonas bacterium, averaged cucumber weight (FIG. 2): 10 mM amino acid combined with Pseudomonas protegens strain CHA0, n=12 per group. As for the experimental part: The disease control abilities of a Pseudomonas bacterium and glutamic acid against an infectious disease caused by a Pythium (Pythium ultimum strain MAFF425494) as a soil pathogen were investigated using cucumber as a test plant.
as §1
Vermiculite was moistened by adding water. To the vermiculite, coarse cereal crops (millet) previously infected with a Pythium were added as they were, and mixing was done well. 7 g of the coarse cereal crops infected with a Pythium was added to 1 L of the vermiculite. Some portion of the vermiculite was left without adding the coarse cereal crops infected with a Pythium.
as §2
The Pseudomonas bacterium and glutamic acid were applied to cucumber seeds and soils in their vicinity. To be specific, for each section of the seedling tray, 4 mL of the adjusted solution of the Pseudomonas bacterium was applied to cucumber seeds, and 15 mL of the vermiculite left without being infected with a Pythium was placed over the cucumber seeds. The seedling tray was soaked in water or an aqueous solution of 10 mM glutamic acid (L-glutamic acid) (10 mL per seedling tray section) contained in a vat. The applications of the Pseudomonas bacterium and glutamic acid were carried out within 2 hours after the seeding of cucumber seeds. The interval between the timings of applications of the Pseudomonas bacterium and glutamic acid was ensured to be not exceeding 1 hour.
The seedling tray was kept in a plant incubator set at 25° C. The light and dark periods were set to 16 and 8 hours, respectively. The cultivation period in the incubator was set to 2 weeks. Replacement of water or an aqueous solution of 10 mM glutamic acid in a vat was done every other day.
By using the same procedure as in Example 1, the effectiveness of combined use of the Pseudomonas bacterium with each of glutamic acid and histidine was investigated.
For application of histidine, an aqueous solution of 10 mM histidine (L-histidine) was prepared and used instead of the aqueous solution of glutamic acid used in Example 1. The number of cucumbers cultivated was n=12 for each group. After 2 weeks of cultivation, the weights of cucumbers were measured and averaged. Upon measurement of the weights of cucumbers, it was ensured that the vermiculite remaining on the roots of cucumbers was washed away carefully.
The effects of combined use of a Pseudomonas bacterium with other amino acids than histidine were investigated. In this example, not only glutamic acid (Glu), but also the following other amino acids: glutamine (Gln), glycine (Gly), leucine (Leu), phenylalanine (Phe), arginine (Arg), lysine (Lys), valine (Val), isoleucine (Ile) and tryptophane (Trp), were evaluated by using the same procedure as in Example 1. For each of these amino acids, an aqueous solution of 10 mM amino acid was prepared and used. In this example, Pseudomonas protegens strain Cab57 was used as a Pseudomonas bacterium, and all amino acids used were of the L-form.
The number of cucumbers cultivated in this example was n=12 to 18 for each group. As in Example 2, after 2 weeks of cultivation, the weights of cucumbers were measured and averaged. […]

In the case of `N[C@@H](CCC(=O)O)C(=O)O` [glutamic acid, L-glutamic acid], the “effect on soil-borne disease control ability of the Pseudomonas bacterium, cucumber weight relative to bacterium alone = 1 (FIG. 5)” value in assay [1] is on record as “exhibited similar enhancement of soil-borne disease control ability”. The “effect of combined use on the soil-borne disease control ability of the Pseudomonas bacterium (photograph, FIG. 1)” value in assay [2] (cucumber germinated seeds in vermiculite, 10 mM L-glutamic acid combined with Pseudomonas protegens strain CHA0, 2 weeks cultivation) is “enhanced the soil-borne disease control ability of the Pseudomonas bacterium”. Further, the “effect on disease control ability of the Pseudomonas bacterium, cucumber weight relative to bacterium alone = 1 (FIG. 3)” value in assay [2] (cucumber, 10 mM L-amino acid combined with Pseudomonas protegens strain Cab57, 2 weeks, n=12 to 18) is reported as “exhibited a similar effect even on a different strain of Pseudomonas bacterium”. Moreover, the “soil-borne disease control ability of glutamic acid itself (FIG. 1)” value in assay [2] (cucumber, 10 mM L-glutamic acid alone, no Pseudomonas bacterium, 2 weeks cultivation) is reported as “seemed not to have a high soil-borne disease control ability”. Besides, in assay [2] (cucumber, 2 weeks), the “effect on disease control ability of the Pseudomonas bacterium, averaged cucumber weight (FIG. 2)” value is recorded as “enhanced the disease control ability of the bacterium”. Besides, the “effect on disease control ability of the Pseudomonas bacterium, cucumber weight relative to bacterium alone = 1 (FIG. 4)” value in assay [2] (cucumber, 10 mM glutamic acid combined with Pseudomonas sp. strain Os17, 2 weeks, n=17) is on record as “exhibited a similar effect”.

On to `N[C@@H](Cc1c[nH]cn1)C(=O)O` [histidine, L-histidine, reference compound], for which the “effect on disease control ability of the Pseudomonas bacterium, averaged cucumber weight (FIG. 2)” value in assay [2] (cucumber, 2 weeks) is on record as “did not have a capability of enhancing the disease control ability of the Pseudomonas bacterium”.
